This is an account of results in article PMC4380168 (Bioorganic & medicinal chemistry, 2015).

Where two headings read alike, the source gives them in different places.

One data set concerns P.f. K1. The settings on record: read-out: P.f. K1 IC50; antiprotozoal; ref [5],[4b]; cited from earlier work.
Data set [1] can be described thus: Cytotoxicity against MRC-5 cell line. Format: cell-based, human. The following applies: human, MRC-5 cells (human lung fibroblast, embryonic cell line).
The test system of another data set is SK-OV-3 (ovarian cancer). Nature of the data set: Cytotoxicity against SK-OV-3 ovarian carcinoma cell line. It is filed as cell-based, human.
Data set [2] relates to MDA-MB-231 (breast cancer). Nature of the data set: Cytotoxicity against MDA-MB-231 breast carcinoma cell line. It is filed as cell-based. The settings on record: Homo sapiens.
Data set [3] concerns polio-infected HeLa cells. The following applies: at 10^−7 M; ref [5],[4b]; cited from earlier work.
The test system of the next data set is A549 (lung cancer). Description: Cytotoxicity against A549 lung carcinoma cell line. Format: cell-based, human.
Another data set deals with MRC-5. The following applies: read-out: MRC-5 IC50; cytotoxicity against human eukaryotic cell lines; ref [5],[4b]; cited from earlier work.
Data set [4] deals with MRC-5 (human lung fibroblast). Nature of the data set: Cytotoxicity against MRC-5 cell line. Format: cell-based. The following applies: read-out: MRC-5 EC50 (human lung fibroblast); triplicates.
For data set [5] the following is noted: ref [7]; cited from earlier work.

As usually defined, the IC50 is the concentration at which inhibition is half-maximal. The term EC50 denotes the concentration that produces a half-maximal response. Turning to `CC(=O)c1cccc(N[C@H]2[C@H](N)[C@@](NC(=O)N(C)C)([C@H](C)O)[C@@](C)(O)[C@@]2(O)COC(=O)c2c(C)cccc2O)c1` [Compound 1, pactamycin], the IC50 is 14.2 nM in the data set on P.f. K1 and 95 nM in the data set on MRC-5. Also, the EC50 was determined as 53 nM in data set [1]; 129 nM with SK-OV-3 (ovarian cancer) (Homo sapiens, SK-OV-3, read-out: SK-OV-3 EC50 (ovarian cancer)); 124 nM in data set [2] (MDA-MB-231, read-out: MDA-MB-231 EC50); 124 nM in [2] (MDA-MB-231, read-out: MDA-MB-231 EC50 (breast cancer)); 160 nM in the data set with A549 (lung cancer) (Homo sapiens, A549, read-out: A549 EC50); 160 nM in the data set on A549 (lung cancer) (Homo sapiens, A549, read-out: A549 EC50 (lung cancer)). In addition, in data set [3], the “inhibition of polio-infected HeLa cells” value is on record as “complete inhibition”.
Consider `CC(=O)c1cccc(N[C@H]2[C@H](N)[C@]3(NC(=O)O[C@H]3C)[C@@](C)(O)[C@@]2(O)CO)c1` [Compound 21, De-6-MSA pactamycate], for which the EC50 amounted to 2930 nM in data set [4]; 3800 nM in the data set on SK-OV-3 (ovarian cancer) (read-out: SK-OV-3 EC50 (ovarian cancer), triplicates); 6000 nM in the data set with A549 (lung cancer) (read-out: A549 EC50 (lung cancer), triplicates).
Regarding `CC[C@]1(NC(=O)N(C)C)[C@@H](N)[C@H](Nc2cccc(C(C)=O)c2)[C@](O)(COC(=O)c2c(C)cccc2O)[C@]1(C)O` [Compound 2, 7-Deoxypactamycin], in data set [5], the “antiprotozoal activity relative to 1” value was “increased antiprotozoal activity relative to 1”.
Turning to jogyamycin [Compound 3], the “antiprotozoal activity relative to 1” value in [5] is recorded as “increased antiprotozoal activity relative to 1”.
